How the values were obtained:
[1] = target: isolated recombinant JAK2 kinase domain (Homo sapiens (Human), UniProt O60674); assay: JAK2 enzyme assay (Caliper LabChip, Ki); type: biochemical; conditions: isolated recombinant JAK2 kinase domain, 0.2 nM enzyme, ATP 25 μM
[2] = target: isolated recombinant JAK1 kinase domain (Homo sapiens (Human), UniProt P23458); assay: JAK1 enzyme assay (Caliper LabChip, Ki); type: biochemical; conditions: isolated recombinant JAK1 kinase domain, 1.5 nM enzyme, ATP 25 μM
Chain of isolated recombinant JAK1 kinase domain (P23458 875-1153): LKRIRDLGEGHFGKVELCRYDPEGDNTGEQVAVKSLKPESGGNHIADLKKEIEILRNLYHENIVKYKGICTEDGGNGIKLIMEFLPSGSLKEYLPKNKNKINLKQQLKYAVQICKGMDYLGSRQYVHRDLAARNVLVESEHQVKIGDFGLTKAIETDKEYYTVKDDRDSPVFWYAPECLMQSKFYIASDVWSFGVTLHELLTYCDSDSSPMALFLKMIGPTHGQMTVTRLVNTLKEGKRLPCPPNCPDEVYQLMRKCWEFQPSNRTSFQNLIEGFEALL

Chain of isolated recombinant JAK2 kinase domain (O60674 849-1124): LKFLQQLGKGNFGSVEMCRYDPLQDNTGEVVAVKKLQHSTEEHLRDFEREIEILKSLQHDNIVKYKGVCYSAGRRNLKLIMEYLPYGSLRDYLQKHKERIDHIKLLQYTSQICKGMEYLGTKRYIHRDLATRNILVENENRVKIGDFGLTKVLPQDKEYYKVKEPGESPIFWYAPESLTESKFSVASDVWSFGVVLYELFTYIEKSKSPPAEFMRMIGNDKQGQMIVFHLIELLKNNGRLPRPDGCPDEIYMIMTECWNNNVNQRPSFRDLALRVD

Row | SMILES | Ki [1] [nM] | Ki [2] [nM]
1 | CSCCN1CCN(C(=O)Cn2cc(Nc3nc4c(N5CC6CCC(C5)N6C(=O)C5CC(C(F)(F)F)C5)cccn4n3)cn2)CC1 (centres unmarked) [Example 197, 1-[4-(2-methylsulfanylethyl)-piperazin-1-yl]-2-[4-[[8-[8-[3-(trifluoromethyl)-cyclobutanecarbonyl]-3,8-diazabicyclo[3.2.1]octan-3-yl]-[1,2,4]triazolo[1,5-a]pyridin-2-yl]amino]pyrazol-1-yl]ethanone] | 0.3 | 0.3
2 | CN1CCN(C(=O)Cn2cc(Nc3nc4c(N5CC6CCC(C5)N6C(=O)C5CC(C#N)C5)cccn4n3)cn2)CC1 (centres unmarked) [Example 92, 3-[3-[2-[[1-[2-(4-methylpiperazin-1-yl)-2-oxo-ethyl]pyrazol-4-yl]amino]-[1,2,4]triazolo[1,5-a]pyridin-8-yl]-3,8-diazabicyclo[3.2.1]octane-8-carbonyl]cyclo-butanecarbonitrile] | 1.7 | 0.9
3 | CN1CCN(C(=O)Cn2cc(Nc3nc4c(N5CC6CCC(C5)N6C(=O)C5CC5C(F)(F)F)cccn4n3)cn2)CC1 (centres unmarked) [Example 14, 1-(4-methylpiperazin-1-yl)-2-[4-[[8-[8-[2-(trifluoromethyl)cyclopropanecarbonyl]-3,8-diazabicyclo[3.2.1]octan-3-yl]-[1,2,4]triazolo[1,5-a]pyridin-2-yl]amino]pyrazol-1-yl]ethanone] | 1.1 | 1
4 | CN1CCN(C(=O)Cn2cc(Nc3nc4c(N5CC6CCC(C5)N6S(=O)(=O)c5ccccc5C(F)(F)F)cccn4n3)cn2)CC1 [Example 148, 1-(4-methylpiperazin-1-yl)-2-[4-[[8-[8-(2-(trifluoromethyl)phenyl]sulfonyl-3,8-diazabicyclo[3.2.1]octan-3-yl]-[1,2,4]triazolo[1,5-a]pyridin-2-yl]amino]pyrazol-1-yl]ethanone] | 3.1 | 1.9
5 | CN1CCN(C(=O)Cn2cc(Nc3nc4c(N5CC6CCC(C5)N6C(=O)C5CCSC5)cccn4n3)cn2)CC1 (centres unmarked) [Example 50, 1-(4-methylpiperazin-1-yl)-2-[4-[[8-[8-(tetrahydrothiophene-3-carbonyl)-3,8-diazabicyclo[3.2.1]octan-3-yl]-[1,2,4]triazolo[1,5-a]pyridin-2-yl]amino]pyrazol-1-yl]ethanone] | 1.5 | 1.2
6 | CSc1ccc(C(=O)N2C3CCC2CN(c2cccn4nc(Nc5cnn(CC(=O)N6CCN(C)CC6)c5)nc24)C3)cc1 [Example 99, 1-(4-methylpiperazin-1-yl)-2-[4-[[8-[8-(4-methylsulfanylbenzoyl)-3,8-diazabicyclo[3.2.1]octan-3-yl]-[1,2,4]triazolo[1,5-a]pyridin-2-yl]amino]pyrazol-1-yl]ethanone] | 5.4 | 1.6
7 | CN1CCN(C(=O)Cn2cc(Nc3nc4c(N5CC6CCCC(C5)N6C(=O)CCC(F)(F)F)cccn4n3)cn2)CC1 [Example 4, 4,4,4-trifluoro-1-[3-[2-[[1-[2-(4-methylpiperazin-1-yl)-2-oxo-ethyl]pyrazol-4-yl]amino]-[1,2,4]triazolo[1,5-a]pyridin-8-yl]-3,9-diazabicyclo[3.3.1]nonan-9-yl]butan-1-one] | 0.8 | 0.5
8 | O=C(Cn1cc(Nc2nc3c(N4CC5CCC(C4)N5C(=O)N4CC(C(F)(F)F)C4)cccn3n2)cn1)N1CCN(C2CCOCC2)CC1 [Example 39, 1-(4-tetrahydropyran-4-ylpiperazin-1-yl)-2-[4-[[8-[8-[3-(trifluoromethyl)azetidine-1-carbonyl]-3,8-diazabicyclo[3.2.1]octan-3-yl]-[1,2,4]triazolo[1,5-a]pyridin-2-yl]amino]pyrazol-1-yl]ethanone] | 0.4 | 0.7
9 | N#CC1(CNC2CCN(C(=O)Cn3cc(Nc4nc5c(N6CC7CCC(C6)N7C(=O)N6CC(C(F)(F)F)C6)cccn5n4)cn3)CC2)CC1 [Example 119, 1-[[[1-[2-[4-[[8-[8-[3-(trifluoromethyl)azetidine-1-carbonyl]-3,8-diazabicyclo[3.2.1]octan-3-yl]-[1,2,4]triazolo[1,5-a]pyridin-2-yl]amino]pyrazol-1-yl]acetyl]-4-piperidyl]amino]methyl] cyclopropanecarbonitrile] | 0.8 | 0.8
10 | CN1CCN(C(=O)Cn2cc(Nc3nc4c(N5CC6CCC(C5)N6S(=O)(=O)c5cccc(C(F)(F)F)c5)cccn4n3)cn2)CC1 [Example 133, 1-(4-methylpiperazin-1-yl)-2-[4-[[8-[8-(3-(trifluoromethyl)phenyl]sulfonyl-3,8-diazabicyclo[3.2.1]octan-3-yl]-[1,2,4]triazolo[1,5-a]pyridin-2-yl]amino]pyrazol-1-yl]ethanone] | 1.5 | 0.8
11 | CSc1cccc(S(=O)(=O)N2C3CCC2CN(c2cccn4nc(Nc5cnn(CC(=O)N6CCN(C)CC6)c5)nc24)C3)c1 [Example 169, 1-(4-methylpiperazin-1-yl)-2-[4-[[8-[8-(3-methylsulfanylphenyl)sulfonyl-3,8-diazabicyclo[3.2.1]octan-3-yl]-[1,2,4]triazolo[1,5-a]pyridin-2-yl]amino]pyrazol-1-yl]ethanone] | 0.6 | 0.6
12 | CN1CCN(C(=O)Cn2cc(Nc3nc4c(N5CC6CCC(C5)N6C(=O)N5CC(O)(C(F)(F)F)C5)cccn4n3)cn2)CC1 [Example 141, 2-[4-[[8-[8-[3-hydroxy-3-(trifluoromethyl)azetidine-1-carbonyl]-3,8-diazabicyclo[3.2.1]octan-3-yl]-[1,2,4]triazolo[1,5-a]pyridin-2-yl]amino]pyrazol-1-yl]-1-(4-methylpiperazin-1-yl)ethanone] | 0.3 | 0.2
13 | CCc1cnn([C@@]2(CC#N)[C@@H]3CC[C@H]2CN(c2cccn4nc(Nc5cnn(CC(=O)N6CCN(C)CC6)c5)nc24)C3)c1 [Example 117, 2-[(1R,5S)-8-(4-ethylpyrazol-1-yl)-3-[2-[[1-[2-(4-methylpiperazin-1-yl)-2-oxo-ethyl]pyrazol-4-yl]amino]-[1,2,4]triazolo[1,5-a]pyridin-8-yl]-3-azabicyclo[3.2.1]octan-8-yl]acetonitrile] | 24.2 | 18.3
14 | CN1CCN(C(=O)Cn2cc(Nc3nc4c(N5CC6CCC(C5)N6C(=O)C(C)(C)CC(F)(F)F)cccn4n3)cn2)CC1 [Example 71, 4,4,4-trifluoro-2,2-dimethyl-1-[3-[2-[[1-[2-(4-methylpiperazin-1-yl)-2-oxo-ethyl]pyrazol-4-yl]amino]-[1,2,4]triazolo[1,5-a]pyridin-8-yl]-3,8-diazabicyclo[3.2.1]octan-8-yl]butan-1-one] | 1.8 | 1.8
15 | CN1CCN(C(=O)Cn2cc(Nc3nc4c(N5CC6CCC(C5)N6C(=O)C5CCC(F)(F)CC5)cccn4n3)cn2)CC1 [Example 51, 2-[4-[[8-[8-(4,4-difluorocyclohexanecarbonyl)-3,8-diazabicyclo[3.2.1]octan-3-yl]-[1,2,4]triazolo[1,5-a]pyridin-2-yl]amino]pyrazol-1-yl]-1-(4-methylpiperazin-1-yl)ethanone] | 4.8 | 2
16 | O=C(Cn1cc(Nc2nc3c(N4CC5CCC(C4)N5C(=O)[C@H]4C[C@H](C(F)(F)F)C4)cccn3n2)cn1)N1CCN(C2CSC2)CC1 [Example 83, 1-[4-(thietan-3-yl)piperazin-1-yl]-2-[4-[[8-[8-[3-(trifluoromethyl)cyclo-butanecarbonyl]-3,8-diazabicyclo[3.2.1]octan-3-yl]-[1,2,4]triazolo[1,5-a]pyridin-2-yl]amino]pyrazol-1-yl]ethanone] | 4 | 1.6
17 | CN(CC1(C#N)CC1)C1CCN(C(=O)Cn2cc(Nc3nc4c(N5CC6CCC(C5)N6C(=O)C5CC(C(F)(F)F)C5)cccn4n3)cn2)CC1 (centres unmarked) [Example 192, 1-[[methyl-[1-[2-[4-[[8-[8-[3-(trifluoromethyl)cyclo-butanecarbonyl]-3,8-diazabicyclo[3.2.1]octan-3-yl]-[1,2,4]triazolo[1,5-a]alpyridin-2-yl]amino]pyrazol-1-yl]acetyl]-4-piperidyl]amino]methyl]-cyclopropanecarbonitrile] | 1.1 | 0.9
18 | COC(=O)C1C2CCC1CN(c1cccn3nc(Nc4cnn(CC(=O)N5CCN(C)CC5)c4)nc13)C2 (centres unmarked) [Example 80, methyl 3-[2-[[1-[2-(4-methylpiperazin-1-yl)-2-oxo-ethyl]pyrazol-4-yl]amino]-[1,2,4]triazolo[1,5-a]pyridin-8-yl]-3-azabicyclo[3.2.1]octane-8-carboxylate] | 3.1 | 1.5
19 | CN1CCN(C(=O)Cn2cc(Nc3nc4c(N5CC6CCC(C5)N6S(=O)(=O)C5CCCCC5)cccn4n3)cn2)CC1 [Example 178, 2-[4-[[8-(8-cyclohexylsulfonyl-3,8-diazabicyclo[3.2.1]octan-3-yl)-[1,2,4]triazolo[1,5-a]pyridin-2-yl]amino]pyrazol-1-yl]-1-(4-methylpiperazin-1-yl)ethanone; formic acid] | 1.5 | 1.8
20 | CN1CCN(C(=O)Cn2cc(Nc3nc4c(N5CC6CCCC(C5)N6C(=O)CC5CC(F)(F)C5)cccn4n3)cn2)CC1 [Example 97, 2-(3,3-difluorocyclobutyl)-1-[3-[2-[[1-[2-(4-methylpiperazin-1-yl)-2-oxo-ethyl]pyrazol-4-yl]amino]-[1,2,4]triazolo[1,5-a]pyridin-8-yl]-3,9-diazabicyclo[3.3.1]nonan-9-yl]ethanone] | 0.5 | 0.6
21 | CN1CCN(C(=O)Cn2cc(Nc3nc4c(N5CC6CCCC(C5)N6C(=O)C5CSC5)cccn4n3)cn2)CC1 [Example 96, 1-(4-methylpiperazin-1-yl)-2-[4-[[8-[9-(thietane-3-carbonyl)-3,9-diazabicyclo[3.3.1]nonan-3-yl]-[1,2,4]triazolo[1,5-a]pyridin-2-yl]amino]pyrazol-1-yl]ethanone] | 0.5 | 0.4
22 | CN1CCN(C(=O)Cn2cc(Nc3nc4c(N5CC6CCC(C5)N6S(=O)(=O)c5ccccc5Cl)cccn4n3)cn2)CC1 [Example 111, 2-[4-[[8-[8-(2-chlorophenyl)sulfonyl-3,8-diazabicyclo[3.2.1]octan-3-yl]-[1,2,4]triazolo[1,5-a]pyridin-2-yl]amino]pyrazol-1-yl]-1-(4-methylpiperazin-1-yl)ethanone] | 0.5 | 0.5

— patent publication US10189836B2, “Therapeutic compounds, compositions and methods of use thereof” (Genentech, Inc., priority 2015, dated 2019)
